# Patent US8119660B2, “Small-molecule inhibitors of the androgen receptor” (The Regents of the University of California, priority 2007, dated 2012)
# Counter-ions that a name gives are not always drawn.
# System: endogenous AR-regulated gene expression, LAPC4 cells
# Assay: qRT-PCR of androgen-responsive genes in LAPC4 cells
# Format: cell-based, human
# Details: No DHT = 1, 3 nM DHT alone or with 1 uM BIC, 100 nM PP or 100 nM HH
# Protocol: LAPC4 and LNCaP cells were grown in the presence or absence of 3 nM DHT in charcoal-stripped media, with or without the inhibitors. RNA was harvested using an RNAeasy kit (Qiagen) and reverse transcribed (MMLV-RT, Invitrogen). Real-time PCR was carried out on a 7300 Real Time PCR System (Applied Biosystems) using SYBR green as the detecting dye and Rox as the reference dye. The androgen responsive genes kalikrein 3, or PSA (KLK3) [Cleutjens, K. B., et al., Two androgen response regions cooperate in steroid hormone regulated activity of the prostate-specific antigen promoter. J Biol Chem, 1996. 271(11): p. 6379-88; Nelson, P. S., et al., The program of androgen-responsive genes in neoplastic prostate epithelium. Proc Natl Acad Sci USA, 2002. 99(18): p. 11890-5), metalloproteinase 16 (MMP16) (Nelson, P. S., et al., The program of androgen-responsive genes in neoplastic prostate epithelium. Proc Natl Acad Sci USA, 2002. 99(18): p. 11890-5), transmembrane protease serine 2 (TMPRSS2) (Nelson, P. S., et al., The program of androgen-responsive genes in neoplastic prostate epithelium. Proc Natl Acad Sci USA, 2002. 99(18): p. 11890-5; […] Vaarala, M. H., et al., Expression of transmembrane serine protease TMPRSS2 in mouse and human tissues. J Pathol, 2001. 193(1): p. 134-40), FK506-binding immunophilin 51 (FKBP51) (Nelson, P. S., et al., The program of androgen-responsive genes in neoplastic prostate epithelium. Proc Natl Acad Sci USA, 2002. 99(18): p. 11890-5; Amler, L. C., et al., Dysregulated expression of androgen-responsive and nonresponsive genes in the androgen-independent prostate cancer xenograft model CWR22-R1. Cancer Res, 2000. 60(21): p. 6134-41; Velasco, A. M., et al., Identification and validation of novel androgen-regulated genes in prostate cancer. Endocrinology, 2004. 145(8): p. 3913-24; Magee, J. A., et al., Direct, androgen receptor-mediated regulation of the FKBP5 gene via a distal enhancer element. Endocrinology, 2006. 147(1): p. 590-8), G-protein coupled receptor RDC1 homolog, or chemokine orphan receptor 1 (RDC-1) (Nelson, P. S., et al., The program of androgen-responsive genes in neoplastic prostate epithelium. Proc Natl Acad Sci USA, 2002. 99(18): p. 11890-5), NK homeobox family member 3 (Nk×3.1) (Nelson, P. S., et al., The program of androgen-responsive genes in neoplastic prostate epithelium. Proc Natl Acad Sci USA, 2002. 99(18): p. 11890-5; Bieberich, C. J., et al., Prostate-specific and androgen-dependent expression of a novel homeobox gene. J Biol Chem, 1996. 271(50): p. 31779-82; […]) were all normalized to the transcription of the housekeeping ribosomal gene (RPL19). All samples were done in triplicate and separately normalized.
compound,measurement,value
"Cc1nccc2c1[nH]c1cc(O)ccc12 [HH, harmol hydrochloride]",FKBP51 transcription (normalized to RPL19),11.96
same,KLK3 transcription (normalized to RPL19),1.64
same,"MMP16 transcription (normalized to RPL19), androgen-repressed gene",4.74
same,Nkx3.1 transcription (normalized to RPL19),1.55
same,"RDC1 transcription (normalized to RPL19), androgen-repressed gene",2.88
same,TMPRSS2 transcription (normalized to RPL19),1.86
